Laboratory results as given in the supplement of paper PMC10307832.

Columns and labels:
BAY61-3606 + Luminespib = compound: COC1=C(C=C(C=C1)C2=CC3=NC=CN3C(=N2)NC4=C(C=CC=N4)C(=O)N)OC [BAY61-3606] + CCNC(=O)c1noc(-c2cc(C(C)C)c(O)cc2O)c1-c1ccc(CN2CCOCC2)cc1 [Luminespib] (partner 0.01 µM); assay: relative viability (nuclei count vs DMSO), 5 days (fraction); higher = more cells survive
Outline: (§1)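 Lung cancer cell lines in 1536-well plates got either a single drug or a fixed anchor-drug dose together with five library-drug doses (not always all listed) in √10 steps, by pin tool, on the day after seeding. Nuclei were counted after 5 days, and relative viability is the treated-to-vehicle ratio of nuclei counts. Values are medians of duplicate plates.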

BAY61-3606 + Dasatinib = compound: COC1=C(C=C(C=C1)C2=CC3=NC=CN3C(=N2)NC4=C(C=CC=N4)C(=O)N)OC [BAY61-3606] + Cc1nc(Nc2ncc(C(=O)Nc3c(C)cccc3Cl)s2)cc(N2CCN(CCO)CC2)n1 [Dasatinib] (partner 0.075 µM); assay: as above
Outline: as §1

Row | Cell Line | relative viability (BAY61-3606 + Luminespib; first compound 0.02 µM) | relative viability (BAY61-3606 + Luminespib; first compound 0.06325 µM) | relative viability (BAY61-3606 + Luminespib; first compound 0.2 µM) | relative viability (BAY61-3606 + Luminespib; first compound 0.6325 µM) | relative viability (BAY61-3606 + Luminespib; first compound 2 µM) | relative viability (BAY61-3606 + Dasatinib; first compound 0.02 µM) | relative viability (BAY61-3606 + Dasatinib; first compound 0.06325 µM) | relative viability (BAY61-3606 + Dasatinib; first compound 0.2 µM) | relative viability (BAY61-3606 + Dasatinib; first compound 0.6325 µM) | relative viability (BAY61-3606 + Dasatinib; first compound 2 µM)
1 | LCLC-97TM1 | 0.793 | 0.875 | 0.879 | 0.794 | 0.765 | 0.722 | 0.98 | 1.03 | 0.804 | 0.864
2 | LOU-NH91 | 0.375 | 0.294 | 0.396 | 0.379 | 0.317 | 0.538 | 0.495 | 0.513 | 0.538 | 0.489
3 | RERF-LC-KJ | 1.22 | 1.45 | 1.2 | 1.3 | 0.849 | 0.843 | 0.856 | 0.702 | 0.886 | 0.517
4 | NCI-H1437 | 1.14 | 1.15 | 1 | 1.19 | 1.04 | 0.382 | 0.355 | 0.391 | 0.382 | 0.403
5 | NCI-H2087 | 0.188 | 0.132 | 0.181 | 0.196 | 0.139 | 1.01 | 0.858 | 0.906 | 0.79 | 0.635
6 | SW 900 | 0.172 | 0.188 | 0.179 | 0.219 | 0.162 | 0.84 | 0.559 | 0.706 | 0.457 | 0.303
